In US20230348426A1, “OXOPYRROLIDINE FPR2 AGONISTS” (Bristol-Myers Squibb Company, priority 2020, published 2023):

Columns and labels:
human FPR1 = human FPR1 (Homo sapiens (Human), UniProt P21462); assay: FPR1 cyclic adenosine monophosphate (cAMP) assay; format: cell-based; conditions: CHO cells overexpressing human FPR1; forskolin 10 µM; inhibition of cAMP production; read-out: hFPR1 cAMP EC50
Outline: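 CHO cells overexpressing human FPR1 (4,000 cells/well) stimulated with 10 µM forskolin plus 200 µM IBMX in the presence of compound (0.020 nM–100 µM, 1% DMSO), 30 min at room temperature. Intracellular cAMP measured by HTRF. Inhibition of cAMP production fitted to a 4-parameter logistic equation.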

human FPR2 = human FPR2 (Homo sapiens (Human), UniProt P25090); assay: FPR2 cyclic adenosine monophosphate (cAMP) assay; format: cell-based; conditions: CHO cells overexpressing human FPR2; forskolin 5 µM; inhibition of cAMP production; read-out: hFPR2 cAMP2 EC50
Sequence of human FPR2 (P25090 whole entry): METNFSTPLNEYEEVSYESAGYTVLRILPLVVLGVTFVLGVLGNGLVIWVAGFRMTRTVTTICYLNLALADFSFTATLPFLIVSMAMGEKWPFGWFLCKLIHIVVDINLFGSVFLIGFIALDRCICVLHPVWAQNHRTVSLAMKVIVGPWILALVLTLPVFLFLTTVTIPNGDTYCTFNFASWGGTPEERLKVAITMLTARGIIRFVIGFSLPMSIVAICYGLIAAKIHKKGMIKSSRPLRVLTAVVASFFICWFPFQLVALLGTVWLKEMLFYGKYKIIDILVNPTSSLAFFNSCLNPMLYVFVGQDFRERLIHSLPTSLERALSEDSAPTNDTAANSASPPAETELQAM
Outline: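 CHO cells overexpressing human FPR2 (2,000/well) incubated 30 min at room temperature with compound (0.020 nM–100 µM, 1% DMSO), 5 µM forskolin and 200 µM IBMX.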

Sequence of human FPR1 (P21462 whole entry): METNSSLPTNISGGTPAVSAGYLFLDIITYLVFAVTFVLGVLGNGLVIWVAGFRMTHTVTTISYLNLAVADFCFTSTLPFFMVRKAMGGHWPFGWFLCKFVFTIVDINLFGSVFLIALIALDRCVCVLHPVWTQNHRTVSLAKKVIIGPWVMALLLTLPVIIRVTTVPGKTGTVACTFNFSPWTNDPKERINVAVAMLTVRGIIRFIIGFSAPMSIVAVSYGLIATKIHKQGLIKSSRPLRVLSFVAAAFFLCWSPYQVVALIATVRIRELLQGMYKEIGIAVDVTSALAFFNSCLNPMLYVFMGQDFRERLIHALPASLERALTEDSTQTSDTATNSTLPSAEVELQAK

| Structure (SMILES) | EC50 (human FPR1) [nM] | EC50 (human FPR2) [nM] |
| --- | --- | --- |
| COc1cc(F)c([C@@H]2CN(c3nc(C4CCOCC4)ccc3N(C)C)C(=O)[C@H]2NC(=O)c2ccc(OC(F)F)cc2)c(F)c1 [Example 343] | 120 | 33 |
| COc1cc(F)c([C@@H]2CN(c3ncccc3C(F)(F)F)C(=O)[C@H]2NC(=O)c2ccc(Cl)nc2)c(F)c1 [Example 344] | 2000 | 46 |
| CCn1cccc(N2C[C@@H](c3c(F)cc(OC)cc3F)[C@H](NC(=O)c3cccc(OC)c3)C2=O)c1=O [Example 345] | 3.1 | 89 |
| COc1cc(F)c([C@@H]2CN(c3ncccc3C(F)(F)F)C(=O)[C@H]2NC(=O)C2CCc3cc(OC)ccc3C2)c(F)c1 (stereo partly shown) [Example 349] | 5500 | 570 |
| COc1cc(F)c([C@@H]2CN(c3c(C)ccn(C4CCOC4)c3=O)C(=O)[C@H]2NC(=O)c2ccc(OC(F)(F)F)cc2)c(F)c1 (stereo partly shown) [Example 350] | 0.6 | 0.9 |
| COc1ccc([C@@H]2CN(c3cccn(CC(O)C(F)(F)F)c3=O)C(=O)[C@H]2NC(=O)c2ccc(OC(F)(F)F)cc2)cc1 (stereo partly shown) [Example 354] | 7 | 3.2 |
| CCn1nccc(N2C[C@@H](c3c(F)cc(OC)cc3F)[C@H](NC(=O)c3ccc(OC(F)(F)F)cc3)C2=O)c1=O [Example 357] | 12 | 3.1 |
| COc1cc(F)c([C@@H]2CN(c3c(C)ccn(CC(C)O)c3=O)C(=O)[C@H]2NC(=O)c2ccc(OC(F)(F)F)cc2)c(F)c1 (stereo partly shown) [Example 359] | 6 | 4.5 |
| COc1cc(F)c([C@@H]2CN(c3c(C)ccn(CC(C)O)c3=O)C(=O)[C@H]2NC(=O)c2ccc(OC(F)F)cc2)c(F)c1 (stereo partly shown) [Example 360] | 18 | 3.2 |
| COc1cc(F)c([C@@H]2CN(c3c(C)ccn(CC(C)O)c3=O)C(=O)[C@H]2NC(=O)c2ccc(Cl)cc2)c(F)c1 (stereo partly shown) [Example 362] | 12 | 0.1 |
| COCCn1ccc(C)c(N2C[C@@H](c3ccc(OC)cc3)[C@H](NC(=O)c3ccc(Cl)cc3)C2=O)c1=O [Example 365] | 1 | 2.6 |
| COc1ccc([C@@H]2CN(c3c(C)ccn(CC(F)F)c3=O)C(=O)[C@H]2NC(=O)c2ccc(Cl)cc2)cc1 [Example 366] | 3 | 3 |
| COc1ccc([C@@H]2CN(c3c(C)ccn(CCO)c3=O)C(=O)[C@H]2NC(=O)c2ccc(OC(F)F)cc2)c(F)c1 [Example 367] | 3 | 1.2 |
| O=C(N[C@@H]1C(=O)N(c2cccn(CC(O)C(F)(F)F)c2=O)C[C@H]1c1ccc(Cl)cc1)c1ccc(OC(F)F)cc1 (stereo partly shown) [Example 368] | 86 | 1.7 |
| CCn1cncc(N2C[C@@H](c3c(F)cc(OC)cc3F)[C@H](NC(=O)c3ccc(OC(F)F)cc3)C2=O)c1=O [Example 369] | 1100 | 3.7 |
| COc1ccc([C@@H]2CN(c3cccn(CC(O)C(F)(F)F)c3=O)C(=O)[C@H]2NC(=O)c2ccc(OC(F)F)cc2)cc1 (stereo partly shown) [Example 371] | 8 | 1.9 |
| CCN1CCC(N2C[C@@H](c3c(F)cc(OC)cc3F)[C@H](NC(=O)c3ccc(OC(F)(F)F)cc3)C2=O)C1=O (stereo partly shown) [Example 372] | 17 | 2.8 |
| COc1ccc([C@@H]2CN(c3c(C)ccn(CC(F)F)c3=O)C(=O)[C@H]2NC(=O)c2ccc(OC(F)F)cc2)c(F)c1 [Example 376] | 4 | 0.4 |
| COc1ccc([C@@H]2CN(c3c(C)ccn(CC(F)F)c3=O)C(=O)[C@H]2NC(=O)c2ccc(Cl)cc2)c(F)c1 [Example 377] | 5 | 1.6 |
| COc1ccc([C@@H]2CN(c3cccn(CC(OC)C(F)(F)F)c3=O)C(=O)[C@H]2NC(=O)c2ccc(Cl)cc2)c(F)c1 (stereo partly shown) [Example 380] | 3 | 1.8 |
| COc1cc(F)c([C@@H]2CN(c3c(C)ccn(C(F)F)c3=O)C(=O)[C@H]2NC(=O)c2ccc(OC(F)F)cc2)c(F)c1 [Example 381] | 10 | 4 |
| COc1ccc([C@@H]2CN(c3c(C)ccn(C(F)F)c3=O)C(=O)[C@H]2NC(=O)c2ccc(OC(F)(F)F)cc2)cc1 [Example 383] | 2 | 5.5 |
| COc1ccc([C@@H]2CN(c3c(C)ccn(CC4CC4)c3=O)C(=O)[C@H]2NC(=O)c2ccc(Cl)cc2)cc1 [Example 385] | 1 | 7.1 |
| COc1ccc([C@@H]2CN(c3c(C)ccn(CCC(F)(F)F)c3=O)C(=O)[C@H]2NC(=O)c2ccc(OC(F)F)cc2)cc1 [Example 387] | 1 | 2.2 |
| COc1ccc([C@@H]2CN(c3cccn(CC(C)O)c3=O)C(=O)[C@H]2NC(=O)c2ccc(Cl)cc2)cc1 (stereo partly shown) [Example 391] | 36 | 5.5 |
| COc1ccc([C@@H]2CN(c3c(C)ccn(CCO)c3=O)C(=O)[C@H]2NC(=O)c2ccc(Cl)cc2)c(F)c1 [Example 394] | 11 | 1.9 |
| COc1cc(F)c([C@@H]2CN(c3cccnc3OCCO)C(=O)[C@H]2NC(=O)c2ccc(OC(F)(F)F)cc2)c(F)c1 [Example 396] | 39 | 9.5 |

The remaining lines, values ahead:

| EC50 (human FPR1) [nM] | EC50 (human FPR2) [nM] | Structure (SMILES) |
| --- | --- | --- |
| 1900 | 97 | COc1cc(F)c([C@@H]2CN(c3cncnc3O)C(=O)[C@H]2NC(=O)c2ccc(OC(F)F)cc2)c(F)c1 [Example 346] |
| 840 | 110 | COCCn1cccc(N2C[C@@H](c3c(F)cc(OC)cc3F)[C@H](NC(=O)c3ccc(OC(C)C)cc3)C2=O)c1=O [Example 347] |
| 1400 | 111 | COc1cc(F)c([C@@H]2CN(c3nc(N4C[C@@H](C)N(C)[C@@H](C)C4)ccc3C3CC3)C(=O)[C@H]2NC(=O)c2ccc(OC(F)F)cc2)c(F)c1 [Example 348] |
| 5 | 8 | COc1cc(F)c([C@@H]2CN(c3c(C)ccn(C4CC4)c3=O)C(=O)[C@H]2NC(=O)c2ccc(OC(F)F)cc2)c(F)c1 [Example 351] |
| 3 | 4.8 | COc1cc(F)c([C@@H]2CN(c3c(C)ccn(C4CC4)c3=O)C(=O)[C@H]2NC(=O)c2ccc(OC(F)(F)F)cc2)c(F)c1 [Example 352] |
| 17 | 4.2 | COCCN1CCC(N2C[C@@H](c3c(F)cc(OC)cc3F)[C@H](NC(=O)c3ccc(OC(F)(F)F)cc3)C2=O)C1=O (stereo partly shown) [Example 353] |
| 4 | 4.5 | O=C(N[C@@H]1C(=O)N(c2cccn(CC(O)C(F)(F)F)c2=O)C[C@H]1c1ccc(Cl)cc1)c1ccc(OC(F)(F)F)cc1 (stereo partly shown) [Example 355] |
| 31 | 3.5 | COc1cc(F)c([C@@H]2CN(c3ccnn(CCO)c3=O)C(=O)[C@H]2NC(=O)c2ccc(OC(F)(F)F)cc2)c(F)c1 [Example 356] |
| 14 | 2 | CCn1nccc(N2C[C@@H](c3c(F)cc(OC)cc3F)[C@H](NC(=O)c3ccc(OC(F)F)cc3)C2=O)c1=O [Example 358] |
| 3 | 1.7 | COc1cc(F)c([C@@H]2CN(c3c(C)ccn(CC(C)O)c3=O)C(=O)[C@H]2NC(=O)c2ccc(OC(F)(F)F)cc2)c(F)c1 (stereo partly shown) [Example 361] |
| 3 | 0.8 | COCC(C(=O)N1C[C@@H]2C[C@H]1CO2)n1cccc(N2C[C@@H](c3c(F)cc(OC)cc3F)[C@H](NC(=O)c3ccc(OC(F)(F)F)cc3)C2=O)c1=O (stereo partly shown) [Example 363] |
| 1 | 2.3 | COc1ccc([C@@H]2CN(c3cccn(CC(OC)C(F)(F)F)c3=O)C(=O)[C@H]2NC(=O)c2ccc(OC(F)(F)F)cc2)c(F)c1 (stereo partly shown) [Example 364] |
| 1400 | 3.7 | COCCn1cncc(N2C[C@@H](c3c(F)cc(OC)cc3F)[C@H](NC(=O)c3ccc(OC(F)F)cc3)C2=O)c1=O [Example 370] |
| 233 | 12.5 | CCn1ccc(F)c(N2C[C@@H](c3c(F)cc(OC)cc3F)[C@H](NC(=O)c3ccc(OC(F)F)cc3)C2=O)c1=O [Example 373] |
| 3 | 1.6 | COc1ccc([C@@H]2CN(c3c(C)ccn(CCO)c3=O)C(=O)[C@H]2NC(=O)c2ccc(OC(F)(F)F)cc2)c(F)c1 [Example 375] |
| 3800 | 4.6 | CCn1cncc(N2C[C@@H](c3c(F)cc(OC)cc3F)[C@H](NC(=O)c3ccc(Cl)cc3)C2=O)c1=O [Example 378] |
| 320 | 2.6 | COc1cc(F)c([C@@H]2CN(c3c(C)ccn(CC(=O)N4CCOCC4)c3=O)C(=O)[C@H]2NC(=O)c2ccc(Cl)cc2)c(F)c1 [Example 379] |
| 1 | 1.9 | COc1ccc([C@@H]2CN(c3c(C)ccn(C(F)F)c3=O)C(=O)[C@H]2NC(=O)c2ccc(OC(F)F)cc2)cc1 [Example 384] |
| 1 | 2.4 | COc1ccc([C@@H]2CN(c3c(C)ccn(CCC(F)(F)F)c3=O)C(=O)[C@H]2NC(=O)c2ccc(Cl)cc2)cc1 [Example 386] |
| < 5 | < 5 | COCC(CO)n1ccc(C)c(N2C[C@@H](c3ccc(OC)cc3)[C@H](NC(=O)c3ccc(OC(F)F)cc3)C2=O)c1=O (stereo partly shown) [Example 389] |
| 76 | 4.8 | CCN1CCC(N2C[C@@H](c3c(F)cc(OC)cc3F)[C@H](NC(=O)c3ccc(OC(F)F)cc3)C2=O)C1=O (stereo partly shown) [Example 390] |
| 2 | 2.4 | COc1ccc([C@@H]2CN(c3cccn(CC(OC)C(F)(F)F)c3=O)C(=O)[C@H]2NC(=O)c2ccc(Cl)cc2)cc1 (stereo partly shown) [Example 393] |
| 1 | 2.4 | COc1ccc([C@@H]2CN(c3cccn(CC(C)OC)c3=O)C(=O)[C@H]2NC(=O)c2ccc(OC(F)(F)F)cc2)c(F)c1 (stereo partly shown) [Example 395] |
